Source: patent US20120135089A1, “E3 LIGASE INHIBITORS” (priority 2009, published 2012)

What was measured:
Mdm2 and p53 levels = assay: Western blot of Mdm2 and p53 protein levels in cell lines; type: cell-based, human; settings: 6 hours; for Mdm2 and p53 levels: U2OS, RKO, HCT116 (p53 wild-type), 5 μg/ml; for p53 levels in RKO and RKO-E6 cells: isogenic RKO and RKO-E6 (HPV-E6) cells; for levels of endogenous and ectopically expressed Mdm2: p53-null H1299 cells
Protocol: Cells were plated in 384-well format and treated with MG132 (2 hours) or cycloheximide (30 minutes). Steadylite luminescence buffer (PerkinElmer) was added and the relative luminescence levels determined on a Victor3 Plate Reader. Each graph represents the median of 5 replicates normalized to a no treatment control, and one standard deviation is shown. […] The graphs and EC50 values were determined using Graphpad PRISM®. […] U2OS, RKO, and HCT116 cells (p53 wild-type) were incubated with 5 μg/ml (14 μM) of MEL23, 5 μg/ml (15 μM) of MEL24, or 10 μM of MG132 for 6 hours. Cells were lysed and analyzed by Western blotting using anti-Mdm2, anti-p53, and anti-eIF4E antibodies. NT indicates a no treatment control. […] MCF7 cells (p53 wild-type) were incubated with 30 μg/ml (51 μM) etoposide alone or in combination with 50 μM AlIn or 5 μg/ml (14 μM) MEL23, or 5 μg/ml (15 μM) MEL24 for 16 hours. Cells were lysed and analyzed by Western blotting using anti-MDMX and anti-actin antibodies.
H1229 cells were transfected with Mdm2-Flag or remained untransfected. Cells were treated with 5 μg/ml (14 μM) MEL23, 5 μg/ml (15 μM) MEL24, 10 μM MG132, or 1 μg/ml of doxorubicin for 6 hours. Cells were lysed and analyzed by Western blotting using anti-Mdm2 and anti-actin antibodies. The lower band indicated with a star seen with the Mdm2 antibody is a non-specific band. NT indicates a no treatment control. […] RKO and RK0-E6 cells were treated with 5 μg/ml (14 μM) MEL23, 5 μg/ml (15 μM) MEL24, 10 μM MG132, 0.5 μg/ml doxorubicin, 0.5 μg/ml camptothecin or 25 μg/ml Etoposide for 6 hours. Cells were lysed and analyzed by Western blotting using anti-Mdm2, anti-p53, and anti-actin antibodies. The lower band indicated with a star seen with the anti-Mdm2 antibody is a non-specific band. […] RKO cells were treated with 5 μg/ml (14 μM) MEL23, 5 μg/ml (15 μM) MEL24, 10 μM MG132 or 2 μg/ml doxorubicin for 6 hours. Cells were lysed and analyzed by Western blotting using anti-Mdm2, anti-p53, anti-phospho-Ser15 p53, and anti-eiF4E antibodies.
Cells were seeded and treated with the indicated compound(s). Cells were lysed after each time point in a buffer of 50 mM TrisHCl pH 7.5, 200 mM NaCl, 0.5% NP-40, and 1 complete mini EDTA-free protease inhibitor cocktail tablet per 10 mL of buffer (Roche, Cat. No. 8360170). Protein content was quantified using a Biorad protein assay reagent (Bio-Rad Laboratories, Hercules, Calif., Cat. No. 500-0006). SDS sample buffer was added to the samples, and the mixture was boiled for 5 minutes. Equal amounts of protein were resolved on a 1D SDS-PAGE gel. Following separation proteins were transferred to nitrocellulose membrane, blocked with 5% milk, and then incubated with primary antibody overnight at 4° C. The membrane was incubated with secondary-HRP antibody for 45 minutes at room temperature and developed with SuperSignal West Pico Substrate (Pierce, Rockford, Ill., Cat. No. 34080).
Cells were lysed and analyzed by Western blotting using anti-Mdm2, anti-p53, and anti-actin antibodies. The lower band seen with the Mdm2 antibody is a non-specific band. NT indicates no treatment control.
Referring now to FIG. 28e, endogenous Mdm2 and p53 protein levels with MEL17 treatment are shown. Briefly, U2OS, RKO, and HCT116 cells (p53 wild-type) were incubated with 5 μg/ml of MEL17 or 10 μM of MG132 for 6 hours. Cells were lysed and analyzed by Western blotting using anti-Mdm2, anti-p53, and anti-actin antibodies. The lower band seen with the Mdm2 antibody is a non-specific band.

full-length Flag-Mdm2 = molecular target: T1, full-length Flag-Mdm2 (Homo sapiens, UniProt Q00987); assay: in vitro ubiquitination assay, full-length Flag-Mdm2; type: biochemical
T1 construct: 100 ng of full-length Flag-Mdm2; made in house; host or cells: Sf9 insect cells (baculovirus; virus a gift from S. Grossman)
T1 sequence (Q00987 whole entry): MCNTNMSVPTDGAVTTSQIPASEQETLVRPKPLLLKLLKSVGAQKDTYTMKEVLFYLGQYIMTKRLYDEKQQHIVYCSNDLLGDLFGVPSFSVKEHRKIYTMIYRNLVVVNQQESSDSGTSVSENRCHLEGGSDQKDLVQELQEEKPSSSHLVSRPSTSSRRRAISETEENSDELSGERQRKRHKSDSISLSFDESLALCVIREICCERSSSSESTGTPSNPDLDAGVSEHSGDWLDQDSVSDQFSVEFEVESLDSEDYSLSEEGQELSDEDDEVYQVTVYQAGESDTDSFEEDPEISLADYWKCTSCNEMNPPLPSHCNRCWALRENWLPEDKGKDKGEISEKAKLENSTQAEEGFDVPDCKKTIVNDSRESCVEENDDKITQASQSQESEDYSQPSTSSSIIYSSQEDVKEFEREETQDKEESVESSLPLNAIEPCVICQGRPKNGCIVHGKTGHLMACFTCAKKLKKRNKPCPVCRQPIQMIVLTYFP
Protocol: These assays were performed with 100 ng of full-length Flag-Mdm2 or 200 ng of Flag-Mdm2/HA-MdmX complexes (100 ng of each protein as each are present in a 1:1 ratio, when purified), ^32P-labeled ubiquitin, UbCH5c, and E1. Following a 30-minute incubation at 37° C., reactions were terminated and resolved on a SDS-PAGE gel followed by autoradiography. PC indicates positive control, and NC indicates negative control with UbCH5C eliminated from the reaction. The gels were quantified by phosphoimaging using ImageQuant software (GE Healthcare Bio-Sciences Corp., Piscataway, N.J.). […] Reactions were performed as in FIG. 11A except 500 ng GST-Mdm2 (residues 400-491) and GST-MdmX (residues 400-490) were used for ubiquitin polymerization. […]
Full-length Mdm2 in vitro ubiquitination reactions were performed in 15 μl reaction mixtures containing 50 mM TrisHC1 pH 7.5, 5 mM MgCl2, 2 mM NaF, 2 mM ATP, 0.6 mM DTT, 50 ng E1 (Boston Biochem, Cat. No. E-305), 1 μg PK-ubiquitin, 50 ng His-UbCH5C, and 100 ng Flag-Mdm2. […] The products were resolved by SDS-PAGE and analyzed by Western blot with anti-p53, anti-Mdm2 SMP14, 2A10, 3G5 mix, or anti-MdmX antibodies. […]
Referring now to FIG. 28b, as shown, Mdm2 in vitro ubiquitination is not inhibited by MEL17 treatment. […] Samples were analyzed by Western blotting with anti-Mdm2 antibodies. […]

| Compound | Mdm2 and p53 levels (Mdm2 and p53 levels) | p53 levels in RKO and RKO-E6 cells (Mdm2 and p53 levels) | levels of endogenous and ectopically expressed Mdm2 (Mdm2 and p53 levels) | Mdm2 ligase activity (full-length Mdm2 in vitro ubiquitination) (full-length Flag-Mdm2) |
| --- | --- | --- | --- | --- |
| CCCCn1c(=O)[nH]c(O)c(C2NCCc3c2[nH]c2ccccc32)c1=O (stereo not shown) [MEL23] | increased | only increased levels of p53 in RKO cells | increased after treatment | little to no inhibitory effect |
| Cn1c(O)c(C2NCCc3c2[nH]c2ccccc32)c(=O)n(C)c1=O (stereo not shown) [MEL24] | increased | only increased levels of p53 in RKO cells | increased after treatment | – |
